From ChEMBL document CHEMBL1129176, “Enantio-dependence of inducer-specific bidirectional regulation of tumor necrosis factor (TNF)-alpha production: Potent TNF- production inhibitors” (1996)

Tests used:
Type in all cases: functional, Homo sapiens
HL-60 [1] = test: Compound was evaluated for the amount of TNF-alpha produced by HL-60 cells in the presence of 12-O-tetradecanoylphorbol-13-acetate (TPA) at concentration 0.3 uM
HL-60 [2] = test: Compound was evaluated for the amount of TNF-alpha produced by HL-60 cells in the presence of Okadaic acid (OA) at concentration 0.3 uM
HL-60 [3] = test: Compound was evaluated for the amount of TNF-alpha produced by HL-60 cells in the presence of 12-O-tetradecanoylphorbol-13-acetate (TPA) at concentration 30 uM
HL-60 [4] = test: Compound was evaluated for the amount of TNF-alpha produced by HL-60 cells in the presence of Okadaic acid (OA) at concentration 30 uM

Compound	Production (HL-60 [1]) [%]	Production (HL-60 [2]) [%]	Production (HL-60 [3]) [%]	Production (HL-60 [4]) [%]
C[C@H](c1cccc2ccccc12)N1C(=O)c2c(F)c(F)c(F)c(F)c2C1=O	100	2	–	–
C[C@]1(N2C(=O)c3ccccc3C2=O)CCC(=O)NC1=O	–	–	358	75
C[C@@H](C1CCCCC1)N1C(=O)c2c(F)c(F)c(F)c(F)c2C1=O	124	65	–	–
O=C1CCC(N2C(=O)c3ccccc3C2=O)C(=O)N1 (stereo not drawn) [THALIDOMIDE]	–	–	135	58
C[C@@]1(N2C(=O)c3ccccc3C2=O)CCC(=O)NC1=O	–	–	103	39
C[C@H](C1CCCCC1)N1C(=O)c2c(F)c(F)c(F)c(F)c2C1=O	98	10	–	–
C[C@@H](c1ccccc1)N1C(=O)c2c(F)c(F)c(F)c(F)c2C1=O	143	70	–	–
C[C@@H](c1cccc2ccccc12)N1C(=O)c2c(F)c(F)c(F)c(F)c2C1=O	101	101	–	–
C[C@H](c1ccccc1)N1C(=O)c2c(F)c(F)c(F)c(F)c2C1=O	97	2	–	–
